Experimental findings from patent publication US11208387B2, “Macrocyclic broad spectrum antibiotics” (Genentech, Inc., priority 2019, dated 2021) are described below.

Common to all, as to assay: Serum MIC, broth micro-dilution
Holding throughout (format): cell-based
For orientation: Dilution methods test growth across graded concentrations, often in twofold steps.

For test [1], the system named is Acinetobacter baumannii ATCC 17978. The following applies: Acinetobacter baumannii, ATCC17978, 50% v/v mouse serum in Mueller Hinton II cation adjusted Broth, 35° C., 22 hours. In short, it runs like this:
(§1)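 Plates held at 35 °C for 22 h after adding bacteria to a final OD600 of 0.0005. Medium was a 1:1 mix of mouse serum and cation-adjusted Mueller Hinton II broth. Ten two-fold compound dilutions began at 64, 4, 0.5 or 0.13 μg/mL, per CLSI microdilution.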

The test system of test [2] is Escherichia coli strain ATCC 25922. Particulars: Escherichia coli, ATCC25922; 50% v/v mouse serum in Mueller Hinton II cation adjusted Broth, 35° C., 22 hours; Table 4; read-out: E. coli 25922 Serum MIC. In short, it runs like this:
as §1

The test system of test [3] is Klebsiella pneumoniae ATCC 700603. Particulars: Klebsiella pneumoniae, ATCC700603; 50% v/v mouse serum in Mueller Hinton II cation adjusted Broth, 35° C., 22 hours; Table 4; read-out: K pneumoniae 700603 Serum MIC. In short, it runs like this: as §1
The subject of test [4] is Pseudomonas aeruginosa PA01. The following applies: Pseudomonas aeruginosa, PA01; 50% v/v mouse serum in Mueller Hinton II cation adjusted Broth, 35° C., 22 hours; Table 4; read-out: P. aeruginosa 01 Serum MIC. Summed up:
as §1

The mark [5] stands for this setting: Table 4, read-out: A. baumanii 17978 Serum MIC.
The mark [6] stands for this setting: Table 5, read-out: Acinetobacter baumanii 17978 Serum MIC.

Values after ≈ are worked out from the molar mass of the structure shown. Like-named read-outs stand apart in the source and are kept apart here.

On to `C[C@@H]1NC(=O)[C@@H](N(C)C(=O)[C@H](CNS(N)(=O)=O)NC(=O)c2c(N)cc(-c3ccc(C(C)(C)C)cc3)nc2Cl)c2cc(OC[C@H](O)CN)c(O)c(c2)-c2cc(ccc2OC[C@H](O)CN)C[C@@H](C(=O)O)NC1=O` [Example 37, (8S,11S,14S)-14-[[(2S)-2-[[4-amino-6-(4-tert-butylphenyl)-2-chloro-pyridine-3-carbonyl]amino]-3-(sulfamoylamino)-propanoyl]-methyl-amino]-3,17-bis[(2R)-3-amino-2-hydroxy-propoxy]-18-hydroxy-11-methyl-10,13-dioxo-9,12-diazatri-cyclo[13.3.1.12,6]icosa-1(18),2(20),3,5,15(19), 16-hexaene-8-carboxylic acid], for which the MIC – broadly, the smallest concentration in the dilution series that meets the test's criterion for growth inhibition – in test [1] (setting [5]) stood at 8 µM (≈ 8.22 µg/mL); in test [1] (setting [6]) it was 8 µM (≈ 8.22 µg/mL); in test [2], 0.5 µM (≈ 0.514 µg/mL); in test [3] it was 0.5 µM (≈ 0.514 µg/mL); in test [4] it was 4 µM (≈ 4.11 µg/mL).

As to `Cc1nc(-c2ccc(C(C)(C)C)cc2C#N)nc(N)c1C(=O)N[C@@H](CNS(N)(=O)=O)C(=O)N(C)[C@@H]1C(=O)N[C@@H](C)C(=O)N[C@H](C(=O)O)Cc2ccc(OC[C@H](O)CN)c(c2)-c2cc1cc(OC[C@H](O)CN)c2O` [Example 39, (8S,11S,14S)-14-[[(2S)-2-[[4-amino-2-(4-tert-butyl-2-cyano-phenyl)-6-methyl-pyrimidine-5-carbonyl]amino]-3-(sulfamoylamino)-propanoyl]-methyl-amino]-3,17-bis[(2R)-3-amino-2-hydroxy-propoxy]-18-hydroxy-11-methyl-10,13-dioxo-9,12-diazatri-cyclo[13.3.1.12,6]icosa-1(18),2(20),3,5,15(19), 16-hexaene-8-carboxylic acid], the MIC was found to be 24 µM (≈ 24.8 µg/mL) in test [1] (setting [5]); 24 µM (≈ 24.8 µg/mL) in test [1] (setting [6]); 1.5 µM (≈ 1.55 µg/mL) in test [2]; 2 µM (≈ 2.07 µg/mL) in test [3]; 8 µM (≈ 8.27 µg/mL) in test [4].

Turning to `C[C@@H]1NC(=O)[C@@H](N(C)C(=O)[C@H](CNS(N)(=O)=O)NC(=O)c2c(Cl)cc(-c3ccc(C(C)(C)C)cc3)nc2N)c2cc(OC[C@H](O)CN)c(O)c(c2)-c2cc(ccc2OC[C@H](O)CN)C[C@@H](C(=O)O)NC1=O` [Example 40, (8S,11S,14S)-14-[[(2S)-2-[[2-amino-6-(4-tert-butylphenyl)-4-chloro-pyridine-3-carbonyl]amino]-3-(sulfamoylamino)-propanoyl]-methyl-amino]-3,17-bis[(2R)-3-amino-2-hydroxy-propoxy]-18-hydroxy-11-methyl-10,13-dioxo-9,12-diazatri-cyclo[13.3.1.12,6]icosa-1(18),2(20),3,5,15(19), 16-hexaene-8-carboxylic acid], the MIC was determined as 16 µM (≈ 16.4 µg/mL) in test [1] (setting [5]); 16 µM (≈ 16.4 µg/mL) in test [1] (setting [6]); 0.75 µM (≈ 0.771 µg/mL) in test [2]; 0.5 µM (≈ 0.514 µg/mL) in test [3]; 8 µM (≈ 8.22 µg/mL) in test [4].

As to `Cc1nc(-c2ccc(C3CCC3)cc2)nc(N)c1C(=O)N[C@@H](CNS(N)(=O)=O)C(=O)N(C)[C@@H]1C(=O)N[C@@H](C)C(=O)N[C@H](C(=O)O)Cc2ccc(OC[C@H](O)CN)c(c2)-c2cc1cc(OC[C@H](O)CN)c2O` [Example 41, (8S,11S,14S)-14-[[(2S)-2-[[4-amino-2-(4-cyclobutylphenyl)-6-methyl-pyrimidine-5-carbonyl]amino]-3-(sulfamoylamino)-propanoyl]-methyl-amino]-3,17-bis[(2R)-3-amino-2-hydroxy-propoxy]-18-hydroxy-11-methyl-10,13-dioxo-9,12-diazatri-cyclo[13.3.1.12,6]icosa-1(18),2(20),3,5,15(19), 16-hexaene-8-carboxylic acid], the MIC was determined as 16 µM (≈ 16.1 µg/mL) in test [1] (setting [5]); 16 µM (≈ 16.1 µg/mL) in test [1] (setting [6]); 1 µM (≈ 1.01 µg/mL) in test [2]; 1 µM (≈ 1.01 µg/mL) in test [3]; 16 µM (≈ 16.1 µg/mL) in test [4].

As for `Cc1nc(-c2ccc(CC(C)(C)C)cc2)nc(N)c1C(=O)N[C@@H](CNS(N)(=O)=O)C(=O)N(C)[C@@H]1C(=O)N[C@@H](C)C(=O)N[C@H](C(=O)O)Cc2ccc(OC[C@H](O)CN)c(c2)-c2cc1cc(OC[C@H](O)CN)c2O` [Example 42, (8S,11S,14S)-14-[[(2S)-2-[[4-amino-2-[4-(2,2-dimethyl-propyl)phenyl]-6-methyl-pyrimidine-5-carbonyl]amino]-3-(sulfamoylamino)-propanoyl]-methyl-amino]-3,17-bis[(2R)-3-amino-2-hydroxy-propoxy]-18-hydroxy-11-methyl-10,13-dioxo-9,12-diazatri-cyclo[13.3.1.12,6]icosa-1(18),2(20),3,5,15(19), 16-hexaene-8-carboxylic acid], the MIC in test [1] (setting [5]) was 8 µM (≈ 8.18 µg/mL); in test [1] (setting [6]), 8 µM (≈ 8.18 µg/mL); in test [2], 0.5 µM (≈ 0.511 µg/mL); in test [3], 0.75 µM (≈ 0.767 µg/mL); in test [4] it was 4 µM (≈ 4.09 µg/mL).

For the molecule `CCC(C)(C)c1ccc(-c2nc(C)c(C(=O)N[C@@H](CNS(N)(=O)=O)C(=O)N(C)[C@@H]3C(=O)N[C@@H](C)C(=O)N[C@H](C(=O)O)Cc4ccc(OC[C@H](O)CN)c(c4)-c4cc3cc(OC[C@H](O)CN)c4O)c(N)n2)cc1` [Example 45, (8S,11S,14S)-14-[[(2S)-2-[[4-amino-2-[4-(1,1-dimethyl-propyl)phenyl]-6-methyl-pyrimidine-5-carbonyl]amino]-3-(sulfamoylamino)-propanoyl]-methyl-amino]-3,17-bis[(2R)-3-amino-2-hydroxy-propoxy]-18-hydroxy-11-methyl-10,13-dioxo-9,12-diazatri-cyclo[13.3.1.12,6]icosa-1(18),2(20),3,5,15(19), 16-hexaene-8-carboxylic acid], the MIC in test [1] (setting [5]) amounted to 8 µM (≈ 8.18 µg/mL); in test [1] (setting [6]), 8 µM (≈ 8.18 µg/mL); in test [2], 0.5 µM (≈ 0.511 µg/mL); in test [3], 0.5 µM (≈ 0.511 µg/mL); in test [4] it was 3 µM (≈ 3.07 µg/mL).

As for `C[C@@H]1NC(=O)[C@@H](N(C)C(=O)[C@H](CNS(N)(=O)=O)NC(=O)c2cnc(-c3ccc(C(C)(C)C)cc3)nc2N)c2cc(OC[C@H](O)CN)c(O)c(c2)-c2cc(ccc2OC[C@H](O)CN)C[C@@H](C(=O)O)NC1=O` [Example 46, (8S,11S,14S)-14-[[(2S)-2-[[4-amino-2-(4-tert-butylphenyl)-pyrimidine-5-carbonyl]amino]-3-(sulfamoylamino)-propanoyl]-methyl-amino]-3,17-bis[(2R)-3-amino-2-hydroxy-propoxy]-18-hydroxy-11-methyl-10,13-dioxo-9,12-diazatricyclo-[13.3.1.12,6]icosa-1(18),2(20),3,5,15(19), 16-hexaene-8-carboxylic acid], the MIC in test [1] (setting [5]) was 8 µM (≈ 7.95 µg/mL); in test [1] (setting [6]), 8 µM (≈ 7.95 µg/mL); in test [2], 0.5 µM (≈ 0.497 µg/mL); in test [3], 0.5 µM (≈ 0.497 µg/mL); in test [4], 16 µM (≈ 15.9 µg/mL).

With `Cc1nc(-c2ccc3c(c2)CCC3(C)C)nc(N)c1C(=O)N[C@@H](CCN)C(=O)N(C)[C@@H]1C(=O)N[C@@H](C)C(=O)N[C@H](C(=O)O)Cc2ccc(OC[C@H](O)CN)c(c2)-c2cc1cc(OC[C@H](O)CN)c2O` [Example 47, (8S,11S,14S)-18-hydroxy-11-methyl-14-[methyl-[(2S)-4-amino-2-[[4-amino-2-(1,1-dimethylindan-5-yl)-6-methyl-pyrimidine-5-carbonyl]amino]-butanoyl]amino]-10,13-dioxo-3,17-bis[(2R)-3-amino-2-hydroxy-propoxy]-9,12-diazatricyclo-[13.3.1.12,6]icosa-1(18),2(20),3,5,15(19), 16-hexaene-8-carboxylic acid], the MIC in test [1] (setting [5]) was determined as 16 µM (≈ 15.3 µg/mL); in test [1] (setting [6]), 16 µM (≈ 15.3 µg/mL); in test [2], 0.25 µM (≈ 0.239 µg/mL); in test [3], 0.25 µM (≈ 0.239 µg/mL); in test [4], 16 µM (≈ 15.3 µg/mL).

As to `Cc1cc(C(C)(C)C)cc(O)c1-c1nc(C)c(C(=O)N[C@@H](CNS(N)(=O)=O)C(=O)N(C)[C@@H]2C(=O)N[C@@H](C)C(=O)N[C@H](C(=O)O)Cc3ccc(OC[C@H](O)CN)c(c3)-c3cc2cc(OC[C@H](O)CN)c3O)c(N)n1` [Example 48, (8S,11S,14S)-14-[[(2S)-2-[[4-amino-2-(4-tert-butyl-2-hydroxy-6-methyl-phenyl)-6-methyl-pyrimidine-5-carbonyl]amino]-3-(sulfamoylamino)-propanoyl]-methyl-amino]-3,17-bis[(2R)-3-amino-2-hydroxy-propoxy]-18-hydroxy-11-methyl-10,13-dioxo-9,12-diazatri-cyclo[13.3.1.12,6]icosa-1(18),2(20),3,5,15(19), 16-hexaene-8-carboxylic acid], the MIC in test [1] (setting [5]) was 16 µM (≈ 16.6 µg/mL); in test [1] (setting [6]), 16 µM (≈ 16.6 µg/mL); in test [2], 0.75 µM (≈ 0.779 µg/mL); in test [3], 1 µM (≈ 1.04 µg/mL); in test [4] it was 3 µM (≈ 3.11 µg/mL).

For the molecule `Cc1cc(-c2ccc(C(C)(C)C)cc2)nc(N)c1C(=O)N[C@@H](CNS(N)(=O)=O)C(=O)N(C)[C@@H]1C(=O)N[C@@H](C)C(=O)N[C@H](C(=O)O)Cc2ccc(OC[C@H](O)CN)c(c2)-c2cc1cc(OC[C@H](O)CN)c2O` [Example 49, (8S,11S,14S)-14-[[(2S)-2-[[2-amino-6-(4-tert-butylphenyl)-4-methyl-pyridine-3-carbonyl]amino]-3-(sulfamoylamino)-propanoyl]-methyl-amino]-3,17-bis[(2R)-3-amino-2-hydroxy-propoxy]-18-hydroxy-11-methyl-10,13-dioxo-9,12-diazatri-cyclo[13.3.1.12,6]icosa-1(18),2(20),3,5,15(19), 16-hexaene-8-carboxylic acid], the MIC in test [1] (setting [5]) worked out at 16 µM (≈ 16.1 µg/mL); in test [1] (setting [6]), 16 µM (≈ 16.1 µg/mL); in test [2] it was 0.5 µM (≈ 0.504 µg/mL); in test [3], 1 µM (≈ 1.01 µg/mL); in test [4], 8 µM (≈ 8.06 µg/mL).
